Our source for the MIC values is DBAASP.

Test systems include Candida albicans; Pseudomonas aeruginosa; Staphylococcus aureus; Streptococcus agalactiae; Enterococcus faecalis; Escherichia coli W3110; Escherichia coli UB1005; Pseudomonas aeruginosa 9.
Holding throughout (assay): ≥ marks a high value that may be exact or a test limit, other limits are often not marked, values filed in µg/mL are converted to µM
Assay [1] relates to Acinetobacter calcoaceticus.
For assay [2], the system named is Enterococcus faecalis ATCC 29212.
Assay [3] deals with Escherichia coli ATCC 25922.
Assay [4] relates to Pseudomonas aeruginosa ATCC 27853.
The test system of assay [5] is Pseudomonas aeruginosa wt.
For assay [6], the system named is Staphylococcus aureus ATCC 25923.
The test system of assay [7] is Lactococcus lactis subsp. cremoris I116.
Assay [8] deals with Bacillus subtilis ATCC 6633.
Assay [9] deals with Staphylococcus aureus FDA 209P.
For assay [10], the system named is Pseudomonas aeruginosa PAK.
The test system of assay [11] is Streptococcus gordonii Challis DL1.
The subject of assay [12] is Streptococcus mitis ATCC 903.
Assay [13] has as its system Streptococcus mutans UA159.
In assay [14] the test system is Streptococcus sanguinis NY101.
The test system of assay [15] is Streptococcus sobrinus ATCC 33478.
Assay [16] has as its system Streptococcus gordonii DL1.
Assay [17] concerns Streptococcus mutans comD.
For assay [18], the system named is Escherichia coli PCM 2057.
For assay [19], the system named is Micrococcus luteus ATCC 4698.
For assay [20], the system named is Enterobacter cloacae 218R.
For assay [21], the system named is Enterococcus faecalis W61950.
The test system of assay [22] is Enterococcus faecium mic80.
Assay [23] deals with Enterococcus faecium t62764.
In assay [24] the test system is Escherichia coli ESBL 63103.
Assay [25] has as its system Escherichia coli ESBL 64771.
For assay [26], the system named is Klebsiella pneumoniae ESBL 61962.
Assay [27] deals with Klebsiella pneumoniae ESBL 63575.
Assay [28] concerns Pseudomonas aeruginosa 198.
For assay [29], the system named is Pseudomonas aeruginosa H1027.
Assay [30] concerns Pseudomonas aeruginosa H1030.
For assay [31], the system named is Pseudomonas aeruginosa H103.
In assay [32] the test system is Pseudomonas aeruginosa PAO1 H103.
Assay [33] concerns Salmonella enterica serovar Typhimurium.
The test system of assay [34] is Staphylococcus aureus C623.
Assay [35] relates to Staphylococcus epidermidis.
The subject of assay [36] is Stenotrophomonas maltophilia ATCC 13637.

SMILES strings stand for the structures. Values after ≈ are worked out from the molar mass of the structure shown.

As a reminder, the MIC is the least concentration at which growth counts as inhibited. As for `CC[C@H](C)[C@H](NC(=O)[C@H](C)NC(=O)[C@H](CO)NC(=O)[C@@H](NC(=O)[C@H](C)NC(=O)[C@H](CC(N)=O)NC(=O)[C@@H](NC(=O)[C@H](C)NC(=O)[C@H](Cc1cnc[nH]1)NC(=O)[C@@H]1CCCN1C(=O)[C@@H](NC(=O)[C@H](CC(C)C)NC(=O)[C@H](CO)NC(=O)[C@H](CC(C)C)NC(=O)[C@@H](N)Cc1ccccc1)[C@@H](C)CC)[C@@H](C)CC)C(C)C)C(=O)N[C@@H](C)C(=O)N[C@@H](CCCCN)C(=O)N[C@@H](Cc1cnc[nH]1)C(=O)N[C@@H](CC(N)=O)C(N)=O` [FLSLIPHAINAVSAIAKHN], the MIC in assay [1] is 7.9 µM (≈ 15.9 µg/mL); with Candida albicans, 7.9 µM (≈ 15.9 µg/mL); in assay [2], 4 µM (≈ 8.06 µg/mL); in assay [3], 7.9 µM (≈ 15.9 µg/mL); in [4] it was 4 µM (≈ 8.06 µg/mL); in assay [5] it was 3 µM (≈ 6.05 µg/mL). The MIC is 31.7 µM (≈ 63.9 µg/mL) with Pseudomonas aeruginosa, 7.9 µM (≈ 15.9 µg/mL) in [6], 15.8 µM (≈ 31.8 µg/mL) against Staphylococcus aureus and 3.9 µM (≈ 7.86 µg/mL) in the assay with Streptococcus agalactiae.

The compound `CC[C@H](C)[C@H](NC(=O)[C@H](CC(C)C)NC(=O)CNC(=O)CNC(=O)[C@@H](NC(=O)[C@H](CCCCN)NC(=O)CNC(=O)[C@H](CC(C)C)NC(=O)[C@@H](NC(=O)[C@H](CC(=O)O)NC(=O)[C@@H](NC(=O)[C@H](CC(C)C)NC(=O)CN)C(C)C)C(C)C)C(C)C)C(=O)N[C@@H](CCCCN)C(=O)N[C@@H](CCCCN)C(=O)N[C@@H](CC(C)C)C(=O)N[C@@H](CC(C)C)C(=O)N1CCC[C@H]1C(N)=O` [GLVDVLGKVGGLIKKLLP] registered a minimal inhibitory concentration (MIC) in assay [7] of no less than 32 µM.

For the compound `CC[C@H](C)[C@H](NC(=O)[C@@H](N)C(C)C)C(=O)N[C@@H](CC(=O)O)C(=O)N[C@@H](CC(=O)O)C(=O)N[C@@H](CC(C)C)C(=O)N[C@@H](CCCCN)C(=O)N[C@@H](CCCCN)C(=O)N[C@H](C(=O)N[C@@H](C)C(=O)N[C@@H](CCCCN)C(=O)N[C@@H](CCCCN)C(=O)N[C@H](C(=O)N[C@@H](CCCN=C(N)N)C(=O)N[C@@H](CCCN=C(N)N)C(=O)N[C@@H](CCC(=O)O)C(=O)N[C@@H](CC(C)C)C(=O)N[C@@H](CC(C)C)C(=O)N[C@@H](CS)C(=O)N[C@@H](CCCCN)C(=O)N[C@@H](CCCCN)C(=O)N[C@@H](Cc1cnc[nH]1)C(=O)N[C@@H](Cc1cnc[nH]1)C(=O)N[C@@H](CCCCN)C(=O)N[C@@H](CCCCN)C(=O)N[C@@H](CC(C)C)C(=O)N[C@@H](CC(N)=O)C(=O)O)C(C)C)C(C)C` [VIDDLKKVAKKVRRELLCKKHHKKLN], the MIC in assay [8] is 20.4 µM (≈ 64 µg/mL); in [9] it was 11.3 µM (≈ 35.5 µg/mL).

Take `C[C@@H](O)[C@H](NC(=O)[C@H](CO)NC(=O)[C@H](Cc1c[nH]c2ccccc12)NC(=O)[C@H](Cc1c[nH]c2ccccc12)NC(=O)[C@H](CO)NC(=O)[C@H](Cc1cnc[nH]1)NC(=O)[C@H](Cc1c[nH]c2ccccc12)NC(=O)[C@@H](N)Cc1c[nH]c2ccccc12)C(=O)N[C@@H](Cc1c[nH]c2ccccc12)C(N)=O` [WWHSWWSTW]: the minimal inhibitory concentration (MIC) in the assay on Enterococcus faecalis is no less than 91.8 µM; with Escherichia coli W3110 it was no less than 91.8 µM; in assay [10] it was no less than 91.8 µM; against Staphylococcus aureus it was greater than 91.8 µM; in assay [11] it was no less than 91.8 µM; in assay [12], no less than 91.8 µM. The MIC in assay [13], in [14] and in [15] was no less than 91.8 µM throughout.

In the case of `NCCCC[C@H](NC(=O)[C@H](Cc1c[nH]c2ccccc12)NC(=O)[C@H](Cc1ccccc1)NC(=O)[C@H](CCCCN)NC(=O)[C@H](CCCCN)NC(=O)[C@@H](N)Cc1ccccc1)C(=O)N[C@@H](Cc1c[nH]c2ccccc12)C(=O)N[C@@H](Cc1ccccc1)C(=O)N[C@@H](CCCN=C(N)N)C(=O)N[C@@H](CCCN=C(N)N)C(=O)N[C@@H](Cc1ccccc1)C(=O)O` [FKKFWKWFRRF], the MIC in [16] is 20 µM (≈ 33.5 µg/mL); in [13], 7 µM (≈ 11.7 µg/mL); in assay [17], 6.5 µM (≈ 10.9 µg/mL); in [14], no less than 40 µM.

With `CC[C@H](C)[C@H](NC(=O)[C@@H](NC(=O)[C@@H](N)CO)C(C)C)C(=O)NCC(=O)N[C@H]1CSSC[C@@H](C(=O)N[C@@H](Cc2ccccc2)C(=O)N[C@H](C(=O)N[C@@H](CCCCN)C(N)=O)C(C)C)NC(=O)[C@@H]2CCCN2C(=O)[C@H](CCCN=C(N)N)NC(=O)[C@@H]2CCCN2C(=O)[C@@H]2CCCN2C(=O)[C@H]([C@@H](C)CC)NC(=O)[C@H](CO)NC(=O)[C@H](CCCCN)NC(=O)[C@H]([C@@H](C)O)NC(=O)[C@H](Cc2c[nH]c3ccccc23)NC1=O` [SVIGCWTKSIPPRPCFVK], the MIC in assay [18] was no less than 495 µM; in [19] it was no less than 74.3 µM.

Consider `CC[C@H](C)[C@H](NC(=O)[C@@H](N)CCCCN)C(=O)N[C@@H](Cc1c[nH]c2ccccc12)C(=O)N[C@@H](Cc1c[nH]c2ccccc12)C(=O)N[C@@H](Cc1c[nH]c2ccccc12)C(=O)N[C@@H](Cc1c[nH]c2ccccc12)C(=O)N[C@@H](CCCN=C(N)N)C(=O)N[C@@H](CCCCN)C(=O)N[C@@H](CCCN=C(N)N)C(=O)O` [KIWWWWRKR], for which the MIC in the assay on Candida albicans is 10.6 µM (≈ 15.3 µg/mL); in assay [20] it was no less than 45 µM; in assay [2], 11.8 µM (≈ 17 µg/mL); in [21], no less than 45 µM; in assay [22], 2.84 µM (≈ 4.1 µg/mL); in assay [23], 0.692 µM (≈ 1 µg/mL). In addition, the MIC in [24] was 5.75 µM (≈ 8.3 µg/mL); in assay [25], 2.84 µM (≈ 4.1 µg/mL); in the assay with Escherichia coli UB1005, 5.3 µM (≈ 7.66 µg/mL); in assay [26], no less than 90 µM; in [27] it was 22.1 µM (≈ 32 µg/mL); in [28] it was 11.8 µM (≈ 17 µg/mL). The minimal inhibitory concentration (MIC) in the assay with Pseudomonas aeruginosa 9 is 22.1 µM (≈ 32 µg/mL); in assay [29], 2.84 µM (≈ 4.1 µg/mL); in [30], 5.75 µM (≈ 8.3 µg/mL); in assay [31], no less than 42.3 µM; in [32] it was 2.84 µM (≈ 4.1 µg/mL); in assay [33], 10.6 µM (≈ 15.3 µg/mL). Further, the MIC in assay [6] was 2.84 µM (≈ 4.1 µg/mL); in assay [34], 2.84 µM (≈ 4.1 µg/mL); in [35], 1.3 µM (≈ 1.88 µg/mL); in assay [36], 1.45 µM (≈ 2.1 µg/mL).
